# Results taken from US9801840B1, “Pharmaceutical composition and use thereof” (priority 2016, dated 2017).
# pIC50: −log10 of the molar value.
# What was measured:
# Src = assay: Immunoprecipitation and Western blot analysis, Huh7 cell lines; type: cell-based; details: Huh7, 15 mins treatment
# Huh7 cell lines [1] = assay: Confocal microscopy analysis of p-FAK (Tyr397) and F-actin; type: cell-based; details: Huh7, 6 hour
# Description: Huh7 cell lines cultured by the method described in Example 2 were seeded on a 22×22 cover slip and treated with 0.1% DMSO (control) or CA for 6 hour. The cells were washed, fixed, and permeabilized with 0.25% Triton X-100 for 10 mins. Next, the cover slips were incubated with p-FAK (Tyr397) primary antibody overnight, and then stained with Alexa488 (anti-rabbit) and Alexa568-phallodin (20 mU/mL) for 1 hour in darkness. Finally, the samples were counterstained for nuclei with DAPI (10 ng/mL) for 10 mins. The images were captured and analyzed using the Leica TCS SP5 Spectral Confocal System. The actin filament intensity was measured by ImageJ (NIH) and calculated by the following formula described by Bennett et al. (2013): Corrected total cell fluorescence (CTCF)=Integrated Density−(Area of selected cell×Mean fluorescence of background readings).
# cdc42 = assay: Rho GTPase activity assay (GST pull-down, Western blot), Huh7 cell lines; type: cell-based; details: Huh7, 6 hours
# Description: Huh7 cell lines were cultured by the method described in Example 2 and treated with 0.1% DMSO (control) or CA for 6 hours and then collected. After the Huh7 cell lines were lysed, the cell lysates (500 μg) were combined with purified GST fusion protein which has conjugated with Rac1, RhoA, or cdc42 binding domain (PAK-PBD for Rac1 and cdc42, Raf-RBD for RhoA) and incubated at 4° C. overnight. The immune-complex was precipitated and then centrifuged at 14,000 rpm for 30 mins. The samples were washed with RIPA buffer solution, boiled with SDS sample buffer solution, and analyzed by Western blot analysis.
# p-FAK (Tyr397) = assay: Immunohistochemistry of excised xenograft tumors; type: in vivo; details: HCC xenograft mice, CA 5 mg/kg/day
# Description: (§1) Tumor samples obtained from experiment 4-1 were fixed in 10% […], embedded in paraffin, and sectioned. The tissue sections were then subjected to immunohistochemical staining with the Novolink Polymer Detection System (Leica Biosystems). The sections were stained for p-VEGFR2 (Tyr951, Cell Signaling Technology), Ki-67 and p-FAK (Tyr397) (Santa Cruz Biotechnology), and the nuclei were counterstained with hematoxylin.
# p-VEGFR2 (Tyr951) = assay: Immunohistochemistry of excised xenograft tumors; type: in vivo; details: HCC xenograft mice, CA 5 mg/kg/day
# Description: as §1
# [2] = target: T1, VEGFR2 (kinase insert domain receptor, KDR) (Homo sapiens, UniProt P35968); assay: ADP-Glo kinase activity assay; type: biochemical; details: 10 μM ATP, read-out: concentration inhibiting VEGFR2 activity by 50%
# T1 construct: purchased Promega V2681
# T1 sequence (P35968 20-1356): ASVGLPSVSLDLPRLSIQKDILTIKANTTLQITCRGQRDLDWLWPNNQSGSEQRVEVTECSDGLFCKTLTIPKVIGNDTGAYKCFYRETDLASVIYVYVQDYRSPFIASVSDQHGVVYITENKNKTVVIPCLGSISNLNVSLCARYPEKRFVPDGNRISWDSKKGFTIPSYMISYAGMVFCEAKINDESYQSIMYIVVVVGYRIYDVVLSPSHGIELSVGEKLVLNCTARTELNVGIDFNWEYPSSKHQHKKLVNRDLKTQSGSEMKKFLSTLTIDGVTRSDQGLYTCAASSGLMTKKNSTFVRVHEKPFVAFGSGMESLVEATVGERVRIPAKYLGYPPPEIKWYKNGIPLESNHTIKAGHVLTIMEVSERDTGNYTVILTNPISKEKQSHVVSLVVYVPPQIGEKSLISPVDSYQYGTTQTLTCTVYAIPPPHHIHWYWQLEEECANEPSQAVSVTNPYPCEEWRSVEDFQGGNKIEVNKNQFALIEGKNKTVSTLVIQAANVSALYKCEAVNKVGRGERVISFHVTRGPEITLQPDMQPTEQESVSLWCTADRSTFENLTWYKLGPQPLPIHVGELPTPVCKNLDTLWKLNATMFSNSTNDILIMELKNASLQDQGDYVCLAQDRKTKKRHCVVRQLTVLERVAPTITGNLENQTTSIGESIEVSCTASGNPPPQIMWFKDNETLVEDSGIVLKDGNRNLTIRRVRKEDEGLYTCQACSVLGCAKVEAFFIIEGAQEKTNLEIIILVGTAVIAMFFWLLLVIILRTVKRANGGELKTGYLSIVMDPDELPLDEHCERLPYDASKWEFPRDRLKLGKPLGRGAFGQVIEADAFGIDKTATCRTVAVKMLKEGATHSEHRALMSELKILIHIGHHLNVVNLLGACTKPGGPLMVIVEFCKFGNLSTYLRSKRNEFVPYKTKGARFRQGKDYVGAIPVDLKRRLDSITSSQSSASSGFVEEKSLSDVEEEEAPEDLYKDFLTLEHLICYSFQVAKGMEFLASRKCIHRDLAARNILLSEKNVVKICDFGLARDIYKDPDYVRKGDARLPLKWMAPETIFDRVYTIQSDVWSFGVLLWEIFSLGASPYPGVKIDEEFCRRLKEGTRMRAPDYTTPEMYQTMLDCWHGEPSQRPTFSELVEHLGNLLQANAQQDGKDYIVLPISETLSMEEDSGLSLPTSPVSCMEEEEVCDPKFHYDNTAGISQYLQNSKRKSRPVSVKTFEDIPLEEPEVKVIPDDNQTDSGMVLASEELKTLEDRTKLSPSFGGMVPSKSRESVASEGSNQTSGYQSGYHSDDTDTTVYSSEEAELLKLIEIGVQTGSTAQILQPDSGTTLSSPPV
# Description: Briefly, CA was first diluted with a kinase reaction buffer solution at a 1:2 dilution ratio. Three nanograms of kinase insert domain receptor (KDR, #V2681, Promega) were added and incubated for 10 mins. Then, 0.1 μg/μL substrate and 10 μM ATP were added and incubated for 1 hour at room temperature. Next, 25 μL of ADP-Glo reagent was added to the mixture and incubated at room temperature for 40 mins. Finally, 50 μL of a kinase detection reagent was added to introduce luciferase and samples were measured.
# Cytotoxicity assay (MTT) = type: cell-based; details: human, Huh7 cells (HCC cell line), Huh7, 24 hours
# Description: (§2) The HCC cell lines: Huh7, HepG2 and Hep3B were obtained from Japanese Collection of Research Bioresources (National Institute of Health Sciences; Japan, JCRB) and maintained in Dulbecco's Modified Eagle's Medium-High Glucose (Invitrogen) medium with 10% fetal bovine serum (FBS), 2 mM L-glutamine (Invitrogen), and 100 μg/mL penicillin-streptomycin (Invitrogen). Cells were cultured in a humidified atmosphere in 5% CO2 at 37° C. A well-known cytotoxicity assays in the art, for example, the assay described by Wang et al. can be performed to study the cytotoxicity of the pharmaceutical composition provided by the present invention. […] The number of viable cells was determined by MTT assay.
# HepG2 cell lines [3] = assay: Cytotoxicity assay (MTT); type: cell-based; details: HepG2, 24 hours
# Description: as §2
# Hep3B cell lines [4] = assay: Cytotoxicity assay (MTT); type: cell-based; details: 24 hours
# Description: as §2
# FAK (Tyr397) = assay: Immunoprecipitation and Western blot analysis, Huh7 cell lines; type: cell-based; details: Huh7, 15 mins treatment
# Huh7 cell lines [5] = assay: G-actin/F-actin activity assay; type: cell-based; details: Huh7, 6 hours, vs control
# Description: Actin activity assay can be conducted by known methods, for example, the method described in Shum et al. (2011). Briefly, Huh7 cell lines were cultured by the method described in Example 2 and treated with 0.1% DMSO (control) or CA for 6 hours and incubated in stabilizing buffer (1% Triton X-100, 1 μg phalloidin, and protease inhibitor cocktail) at room temperature for 5 mins. Cell lysates were collected, followed by centrifugation at 100,000×g at 37° C. for 1 hour. The supernatant was removed and saved as the G-actin fraction. The pellet was washed twice with PBS and dissolved in dissolving buffer solution (1% Triton X-100, 2% SDS, and protease inhibitor cocktail) by sonication, the mixture was put on ice for 1 h, and saved as the F-actin fraction.
# HepG2 cell lines [6] = assay: Transwell migration assay; type: cell-based; details: HepG2, 1-16 μM, 16 hours
# Description: (§3) Then, the cells were seeded into Transwell inserts (8 μm pore; BD Biosciences). The mediums were incubated for 16 hours, and the migrated cells were fixed, stained with crystal violet, and quantified.
# (§4) Except for the compound represented by formula (1), the pharmaceutical composition can further comprises at least one known anticancer agent. […] The software was used to estimate the combination index (CI) and Fa (fraction affected by drugs) and to interpret the combined effect of drugs. CI<1, CI=1, and CI>1 respectively indicate synergistic, additive, and antagonistic effects.
# Hep3B cell lines [7] = assay: Transwell migration assay; type: cell-based; details: 1-16 μM, 16 hours
# Description: as §3, §4
# Huh7 cell lines [8] = assay: Transwell migration assay; type: cell-based
# Description: as §3, §4
# Huh7 cell lines [9] = assay: Antitumor response in vivo, Huh7 xenograft; set-up: species or system mice; details: 5 mg/kg/day intraperitoneal
# Description: All animal experiments were conducted according to the guidelines approved by the Institutional Animal Care and Use Committees of the College of Medicine, National Taiwan University and National Taiwan Normal University. The study was approved by the Animal Care and Use Committees of the College of Medicine, National Taiwan University and National Taiwan Normal University. Male NOD/SCID mice (4-6 weeks old) (obtained from BioLASCO Taiwan Co., Ltd) were housed into individually-ventilated cages with free access to food and drinking water. […] The tumor volume was calculated by the following equation: tumor volume(mm^3)=(length [mm])×(width [mm])^2×0.5.
# VEGFR2 = assay: Immunoprecipitation and Western blot analysis, Huh7 cell lines; type: cell-based; details: Huh7, 15 mins treatment, vs control
# Description: The lysates were then sonicated and centrifuged. The supernatant was kept and incubated with anti-VEGFR1 antibody, anti-VEGFR2 antibody, and anti-VEGFR3 antibody (Santa Cruz Biotechnology, Inc.) overnight at 4° C. The immune-complexes were washed and eluted, and then analyzed by Western blotting.
# FAK = details: xenograft model
# Description: To study the combinatorial effect of CA and sorafenib, Huh7 cell lines (5×10^6 cells) were suspended in 100 μL of Opti-MEM with matrigel-matrix, and injected subcutaneously into the flanks of each mouse. After one week, the mice were treated with 50 μL DMSO (control) and combined compounds by intraperitoneal injection (n=5 for each group) for 20 days.
# At the end of the experiment, the mice were sacrificed. The tumors were excised, weighed, and fixed for further studies.
compound,measurement,setting,value
"C[C@H]1[C@H](C)CC[C@]2(C(=O)O)CC[C@]3(C)C(=CC[C@@H]4[C@@]5(C)C[C@@H](O)[C@H](O)C(C)(C)[C@@H]5CC[C@]43C)[C@H]12 [CA, corosolic acid]",phosphorylation level of Src,Src,down-regulated
same,co-localization of phosphorylation of FAK (Tyr397) and F-actin on the filopodium,Huh7 cell lines [1],decreases
same,pIC50,"cdc42; Homo sapiens, Huh-7, read-out: concentration reducing the activity of cdc42 by 50%",5.70
same,activated cdc42,cdc42,significantly down-regulated
same,phosphorylation of FAK in tumor (immunohistochemistry),p-FAK (Tyr397),reduced phosphorylation of both VEGFR2 and FAK significantly
same,phosphorylation of VEGFR2 in tumor (immunohistochemistry),p-VEGFR2 (Tyr951),reduced phosphorylation of both VEGFR2 and FAK significantly
same,pIC50,[2],~6.02
same,IC50 at 24 h,Cytotoxicity assay (MTT),50 µM
same,cytotoxicity,HepG2 cell lines [3],lower cytotoxicity
same,cytotoxicity,Hep3B cell lines [4],lower cytotoxicity
same,phosphorylation level of FAK (Tyr397),FAK (Tyr397),down-regulated
same,ratio of F-actin/G-actin (polymer/monomer),Huh7 cell lines [5],reduces
same,inhibition of migration,HepG2 cell lines [6],effectively inhibited the migration
same,inhibition of migration,Hep3B cell lines [7],effectively inhibited the migration
same,IC50 cytotoxicity/IC50 migration,Huh7 cell lines [8]; HCC cell lines,≥ 20
same,inhibition of migration,"Huh7 cell lines [8]; Huh7, 1-16 μM, 16 hours",effectively inhibited the migration
same,reduction in tumor mass as compared with the control group,Huh7 cell lines [9]; 21 days,85%
same,volumes of the tumor,Huh7 cell lines [9]; after 21-day treatment,63±19 mm^3
same,phosphorylation level of VEGFR2,VEGFR2,lower
CNC(=O)c1cc(Oc2ccc(NC(=O)Nc3ccc(Cl)c(C(F)(F)F)c3)cc2)ccn1 [sorafenib],phosphorylation level / activation of FAK kinase in the tumor in the mice,FAK,didn't show any inhibitory effect
"C[C@H]1[C@H](C)CC[C@]2(C(=O)O)CC[C@]3(C)C(=CC[C@@H]4[C@@]5(C)CC[C@H](O)C(C)(C)[C@@H]5CC[C@]43C)[C@H]12 [ursolic acid, 3β-hydroxyurs-12-ursen-28-ic acid, reference compound]",inhibitory activity to cell migration (FIG. 2D comparison),"Huh7 cell lines [8]; Huh7, CA vs sorafenib vs ursolic acid",did not show significant inhibitory activity
